Where only a bound is given, the exact number is not on record here.

In ChEMBL document CHEMBL1158694, “Terphenylquinone inhibitors of the src protein tyrosine kinase from Stilbella sp” (J Nat Prod, 2005) one finds IC50 data, which are given here for 5 compounds.

Chain of Proto-oncogene tyrosine-protein kinase Src (P12931 2-536 limits assumed): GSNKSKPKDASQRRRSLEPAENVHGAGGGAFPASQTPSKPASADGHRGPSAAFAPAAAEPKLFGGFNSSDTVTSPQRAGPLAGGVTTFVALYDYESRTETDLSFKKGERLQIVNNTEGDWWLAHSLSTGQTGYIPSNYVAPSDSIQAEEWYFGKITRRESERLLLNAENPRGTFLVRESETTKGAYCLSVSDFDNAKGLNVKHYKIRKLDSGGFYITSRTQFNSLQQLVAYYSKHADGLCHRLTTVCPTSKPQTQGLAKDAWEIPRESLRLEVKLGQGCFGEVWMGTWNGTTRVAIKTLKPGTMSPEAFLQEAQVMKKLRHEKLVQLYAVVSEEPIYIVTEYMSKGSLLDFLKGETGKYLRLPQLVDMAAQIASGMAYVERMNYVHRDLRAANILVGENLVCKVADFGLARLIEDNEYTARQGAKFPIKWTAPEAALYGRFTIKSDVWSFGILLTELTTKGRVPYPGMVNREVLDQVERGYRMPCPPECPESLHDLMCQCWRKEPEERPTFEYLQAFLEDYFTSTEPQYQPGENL

This assay addresses Proto-oncogene tyrosine-protein kinase Src (Homo sapiens, UniProt P12931). Description: Inhibition of His-tagged human src kinase expressed in Sf9 cells by DELFIA assay.
The compound `O=C1C(c2ccccc2)=C(O)C(=O)c2c1oc1cc(O)c(O)cc21` displayed a half-inhibitory concentration (IC50) of 23.6 µM. This lies in the double-digit micromolar range.
The same measure for `O=C1C(O)=C(c2ccccc2)C(=O)C(O)=C1c1ccccc1`: over 50 µM; for `O=C1C(O)=C(c2ccc(O)cc2)C(=O)C(O)=C1c1ccccc1`: 37.5 µM; for `O=C1C(O)=C(c2cc(O)c(O)c(O)c2)C(=O)C(O)=C1c1ccccc1`: 3.9 µM.
Next, `O=C1C(O)=C(c2ccc(O)c(O)c2)C(=O)C(O)=C1c1ccccc1`: 14.5 µM.

What is called IC50 is the concentration at which inhibition is half-maximal. The low end stands for greater potency in that assay, the high end for weaker potency in that assay.
